Experimental data taken from ChEMBL document CHEMBL1136474, “4-(4-alkylpiperazin-1-yl)phenyl group: a novel class of basic side chains for selective estrogen receptor modulators” (2003).

Legend:
[1] = target: Estrogen receptor (Homo sapiens) (UniProt Q92731+P03372); test: Binding affinity towards estrogen receptor (ER) using [3H]17-beta-estradiol as radioligand in human breast cancer MCF-7 cells relative to compound 1; assay type: cell-based; conditions: MCF7
Rattus norvegicus = test: Plasma cholesterol lowering effect was determined in Sprague-Dawley rats at a dose of 1 mg/kg/day for 4 days; assay type: functional
[2] = target: T1, Estrogen receptor (Rattus norvegicus) (UniProt P06211+Q62986); conditions: Uterus
Description: Uterotrophic effect as uterine weight gain in rats at 1 mg/kg/day oral dose for 4 days

[3] = target: T1, Estrogen receptor (Rattus norvegicus); test: Uterotrophic effect as uterine weight gain in rats at 10 mg/kg/day oral dose for 4 days; assay type: functional, organism-based; conditions: Uterus

| Compound | relative binding affinity (RBA) [1] | Uterotrophic effect [2] | Increase [3] | Decrease (Rattus norvegicus) |
| --- | --- | --- | --- | --- |
| Oc1ccc2c(c1)CCC21C=C(c2ccc(OCCN3CCCCC3)c(F)c2)c2cc(O)ccc21 (stereo unspecified) | 247 | – | – | 16% |
| Oc1ccc2c(c1)CCC21C=C(c2cccc(OCCN3CCCCC3)c2)c2cc(O)ccc21 (stereo unspecified) | 47 | – | – | – |
| Cc1cc(OCCN2CCCCC2)ccc1C1=CC2(CCc3cc(O)ccc32)c2ccc(O)cc21 (stereo unspecified) | 70 | – | – | -12% |
| Oc1ccc2c(c1)CCC21C=C(c2ccc(OCCCN3CCCCC3)cc2)c2cc(O)ccc21 (stereo unspecified) | 460 | – | – | 8.5% |
| CC1CCN(CCOc2ccc(C3=CC4(CCc5cc(O)ccc54)c4ccc(O)cc43)cc2)CC1 (stereo unspecified) | 428 | – | – | 18% |
| Cc1cc(C2=CC3(CCc4cc(O)ccc43)c3ccc(O)cc32)ccc1OCCN1CCCCC1 (stereo unspecified) | 122 | – | – | 4.5% |
| Oc1ccc2c(c1)CCC21C=C(c2ccc(OCCN3CCCCC3)cc2)c2cc(O)ccc21 (stereo unspecified) | – | – | – | 44% |
| Oc1ccc2c(c1)CCC21C=C(c2ccc(CCCN3CCCCC3)cc2)c2cc(O)ccc21 (stereo unspecified) | 956 | – | – | 6% |
| Cc1cc(C2=CC3(CCc4cc(O)ccc43)c3ccc(O)cc32)cc(C)c1OCCN1CCCCC1 (stereo unspecified) | 22 | – | – | -9.1% |
| Oc1ccc2c(c1)CCC21C=C(c2ccc(OCCN3CCCC3)cc2)c2cc(O)ccc21 (stereo unspecified) | 118 | – | – | 17% |
| CCN(CC)CCOc1ccc(C2=CC3(CCc4cc(O)ccc43)c3ccc(O)cc32)cc1 (stereo unspecified) | 153 | – | – | 18% |
| CN(C)CCOc1ccc(C2=CC3(CCc4cc(O)ccc43)c3ccc(O)cc32)cc1 (stereo unspecified) | 85 | – | – | 6% |

The next lines start with results.

| relative binding affinity (RBA) [1] | Uterotrophic effect [2] | Increase [3] | Compound | Decrease (Rattus norvegicus) |
| --- | --- | --- | --- | --- |
| 103 | – | – | CC(C)N1CCN(c2ccc(C3=CC4(CCc5cc(O)ccc54)c4ccc(O)cc43)cc2)CC1 (stereo unspecified) | 21% |
| 181 | 208 | – | CCN1CCN(c2ccc(C3=CC4(CCc5cc(O)ccc54)c4ccc(O)cc43)cc2)CC1 (stereo unspecified) | 52% |
| 207 | – | – | CN1CCN(c2ccc(C3=CC4(CCc5cc(O)ccc54)c4ccc(O)cc43)cc2)CC1 (stereo unspecified) | – |
| 42 | 185 | – | CC(C)CN1CCN(c2ccc(C3=CC4(CCc5cc(O)ccc54)c4ccc(O)cc43)cc2)CC1 (stereo unspecified) | 87% |
| 125 | 139 | 26.5% | Oc1ccc2c(c1)CCC21C=C(c2ccc(N3CCCCC3)cc2)c2cc(O)ccc21 (stereo unspecified) | 51% |
| 186 | 223 | – | CCCN1CCN(c2ccc(C3=CC4(CCc5cc(O)ccc54)c4ccc(O)cc43)cc2)CC1 (stereo unspecified) | 55% |
| 387 | 114 | – | CCC1CCCN(c2ccc(C3=CC4(CCc5cc(O)ccc54)c4ccc(O)cc43)cc2)CC1 (stereo unspecified) | 32% |
